Laboratory results taken from patent US8669228B2 (Indiana University Research and Technology Corporation, priority 2007, dated 2014).
Where no end group is shown, it is not given here.

Assay: Glucagon solubility assay (UV absorbance of supernatant after pH adjustment)
Type: physicochemical
Conditions: for solubility relative to native glucagon: pH values of 5.5 and 7.0, after 60 hours at 25° C. (FIG. 3) or 24 hours at 25° C. then 24 hours at 4° C. (FIG. 4)

Compound | solubility relative to native glucagon | Percent Soluble (pH 7) [%]
HSQGTFTSDYSKYLESRRAQDFVQWLMDT [D28, E15] | superior solubility | 
CSCC[C@H](NC(=O)[C@H](CC(C)C)NC(=O)[C@H](Cc1c[nH]c2ccccc12)NC(=O)[C@H](CCC(N)=O)NC(=O)[C@@H](NC(=O)[C@H](Cc1ccccc1)NC(=O)[C@H](CC(=O)O)NC(=O)[C@H](CCC(N)=O)NC(=O)[C@H](C)NC(=O)[C@H](CCCNC(=N)N)NC(=O)[C@H](CCCNC(=N)N)NC(=O)[C@H](CO)NC(=O)[C@H](CC(=O)O)NC(=O)[C@H](CC(C)C)NC(=O)[C@H](Cc1ccc(O)cc1)NC(=O)[C@H](CCCCN)NC(=O)[C@H](CO)NC(=O)[C@H](Cc1ccc(O)cc1)NC(=O)[C@H](CC(=O)O)NC(=O)[C@H](CO)NC(=O)[C@@H](NC(=O)[C@H](Cc1ccccc1)NC(=O)[C@@H](NC(=O)CNC(=O)[C@H](CCC(N)=O)NC(=O)[C@H](CO)NC(=O)[C@@H](N)Cc1c[nH]cn1)[C@@H](C)O)[C@@H](C)O)C(C)C)C(=O)N[C@@H](CC(=O)O)C(=O)N[C@@H](CCC(=O)O)C(=O)O [D28, E29] | superior solubility | 
Glucagon, Cys17PEG5K: Glucagon Cys17 (1-29) reacted with methoxy poly(ethyleneglycol) maleimide avg. M.W. 5000 |  | 94
